Test results: US9930890B2 (priority 2010, dated 2018)

Legend:
[1] = test system: Plasmopara viticola; assay: Plasmopara test (grapevine)/protective; assay type: in vivo; conditions: grapevine young plants, protective spray, active ingredient concentration 10 ppm, evaluation 6 days after inoculation; 0% = control, 100% = no infection
Method: Plasmopara Test (Grapevine)/Protective
To produce an appropriate active ingredient formulation, 1 part by weight of active ingredient is mixed with the specified amounts of solvent and emulsifier, and the concentrate is diluted with water to the desired concentration.
To test for protective efficacy, young plants are sprayed with the active ingredient formulation at the stated application rate. After the spray coating has dried on, the plants are inoculated with an aqueous spore suspension of Plasmopara viticola and then remain in an incubation cabin at approx. 20° C. and 100% relative air humidity for 1 day. Subsequently, the plants are placed in a greenhouse at approx. 21° C. and approx. 90% air humidity for 4 days. The plants are then moistened and placed in an incubation cabin for 1 day.
Evaluation follows 6 days after the inoculation. 0% means an efficacy which corresponds to that of the control, whereas an efficacy of 100% means that no infection is observed.
In this test, the following inventive compounds show, at an active ingredient concentration of 10 ppm, an efficacy of 70% or more: […]

[2] = for logp [a]: pH 2.7; for logp [b]: pH 7.8
[3] = test system: Phytophthora infestans; assay type: in vivo; conditions: tomato plants, protective spray, active ingredient concentration 100 ppm, evaluation 7 days after inoculation; 0% = control, 100% = no infection

CON=C(C)c1cccc(C2CC(c3csc(C4CCN(C(=O)Cn5nc(C(F)(F)F)cc5C)CC4)n3)=NO2)c1 (mixture of isomers) [I-3]
Eff. % [1]: 97%
logp [a] [2]: 3.7[a]
Eff. % [3]: 100%

CCON=C(C)c1cccc(C2CC(c3csc(C4CCN(C(=O)Cn5nc(C(F)F)cc5C(F)F)CC4)n3)=NO2)c1 (mixture of isomers) [I-5]
Eff. % [1]: 87%
Eff. % [3]: 100%

CC(=NO)c1cccc(C2CC(c3csc(C4CCN(C(=O)Cn5nc(C(F)(F)F)cc5C)CC4)n3)=NO2)c1 (mixture of isomers) [I-7]
Eff. % [1]: 100%
logp [a] [2]: 2.8[a]
Eff. % [3]: 100%

Cc1cc(C(F)(F)F)nn1CC(=O)N1CCC(c2nc(C3=NOC(c4cccc(C=NO)c4)C3)cs2)CC1 (mixture of isomers) [I-10]
Eff. % [1]: 92%
Eff. % [3]: 100%

Cc1ccc(Cl)cc1NC(=O)N1CCC(c2nc(C3=NOC(c4cccc(C=NO)c4)C3)cs2)CC1 (mixture of isomers) [I-14]
Eff. % [1]: 100%
Eff. % [3]: 100%

CON=Cc1cccc(C2CC(c3csc(C4CCN(C(=O)Cn5nc(C(F)(F)F)cc5C)CC4)n3)=NO2)c1 (mixture of isomers) [I-15]
Eff. % [1]: 81%
Eff. % [3]: 100%

CON=Cc1cccc(C2CC(c3csc(C4CCN(C(=O)Cn5nc(C(F)F)cc5C(F)F)CC4)n3)=NO2)c1 (mixture of isomers) [I-16]
Eff. % [1]: 94%

CC(=NO)c1cccc(C2CC(c3csc(C4CCN(C(=O)Cn5nc(C(F)F)cc5C(F)F)CC4)n3)=NO2)c1 (mixture of isomers) [I-18]
Eff. % [1]: 100%
Eff. % [3]: 100%

CON=Cc1cccc(C2CC(c3csc(C4CCN(C(=O)Nc5cc(Cl)ccc5C)CC4)n3)=NO2)c1 (mixture of isomers) [I-19]
Eff. % [1]: 100%
Eff. % [3]: 100%

CON=C(C)c1cccc(C2CC(c3csc(C4CCN(C(=O)Cn5nc(C(F)F)cc5C(F)F)CC4)n3)=NO2)c1 (mixture of isomers) [I-21]
Eff. % [1]: 100%
Eff. % [3]: 100%

O=C(Cn1nc(C(F)F)cc1C(F)F)N1CCC(c2nc(C3=NOC(c4cccc(C=NO)c4)C3)cs2)CC1 (mixture of isomers) [I-22]
Eff. % [1]: 100%
Eff. % [3]: 100%

CON=C(C)c1cccc(C2CC(c3csc(C4CCN(C(=O)Nc5cc(Cl)ccc5C)CC4)n3)=NO2)c1 (mixture of isomers) [I-23]
Eff. % [1]: 98%
Eff. % [3]: 100%

CCON=Cc1ccccc1C1CC(c2csc(C3CCN(C(=O)Cn4nc(C(F)F)cc4C(F)F)CC3)n2)=NO1 (mixture of isomers) [I-27]
Eff. % [1]: 99%
Eff. % [3]: 100%

CCON=Cc1ccccc1C1CC(c2csc(C3CCN(C(=O)Cn4nc(C(F)(F)F)cc4C)CC3)n2)=NO1 (mixture of isomers) [I-29]
Eff. % [1]: 90%
logp [a] [2]: 4[a]
Eff. % [3]: 100%

CON=C(C)c1ccccc1C1CC(c2csc(C3CCN(C(=O)Cn4nc(C(F)(F)F)cc4C)CC3)n2)=NO1 (mixture of isomers) [I-31]
Eff. % [1]: 97%
Eff. % [3]: 100%

CON=C(C)c1ccccc1C1CC(c2csc(C3CCN(C(=O)Cn4nc(C(F)F)cc4C(F)F)CC3)n2)=NO1 (mixture of isomers) [I-32]
Eff. % [1]: 85%
Eff. % [3]: 100%

CON=Cc1ccccc1C1CC(c2csc(C3CCN(C(=O)Cn4nc(C(F)(F)F)cc4C)CC3)n2)=NO1 (mixture of isomers) [I-34]
Eff. % [1]: 87%
logp [a] [2]: 3.7[a]
Eff. % [3]: 100%

O=C(Cn1nc(C(F)F)cc1C(F)F)N1CCC(c2nc(C3=NOC(c4ccccc4C=NO)C3)cs2)CC1 (mixture of isomers) [I-35]
Eff. % [1]: 100%
Eff. % [3]: 95%

Cc1ccc(Cl)cc1NC(=O)N1CCC(c2nc(C3=NOC(c4ccccc4C=NO)C3)cs2)CC1 (mixture of isomers) [I-36]
Eff. % [1]: 100%
Eff. % [3]: 100%

CON=Cc1cccc(F)c1C1CC(c2csc(C3CCN(C(=O)Cn4nc(C(F)(F)F)cc4C)CC3)n2)=NO1 (mixture of isomers) [I-118]
Eff. % [1]: 100%
logp [a] [2]: 3.61[a],
logp [b] [2]: 3.49[b]
Eff. % [3]: 95%

CC(=O)Nc1ccc(C2CC(c3csc(C4CCN(C(=O)Cn5nc(C(F)F)cc5C(F)F)CC4)n3)=NO2)cc1 (racemic) [I-25]
Eff. % [1]: 97%
logp [a] [2]: 2.2[a],

C#CCOCc1ccccc1C1CC(c2csc(C3CCN(C(=O)Cn4nc(C(F)(F)F)cc4C)CC3)n2)=NO1 (racemic) [I-46]
Eff. % [1]: 94%
logp [a] [2]: 3.43[a]
Eff. % [3]: 94%

CC(=O)OCc1ccccc1C1CC(c2csc(C3CCN(C(=O)Cn4nc(C(F)(F)F)cc4C)CC3)n2)=NO1 (racemic) [I-47]
Eff. % [1]: 90%
logp [a] [2]: 3.31[a]
Eff. % [3]: 94%

C#CCOCc1ccccc1C1CC(c2csc(C3CCN(C(=O)Cn4nc(C(F)F)cc4C(F)F)CC3)n2)=NO1 (racemic) [I-53]
Eff. % [1]: 96%
logp [a] [2]: 3.31[a]
Eff. % [3]: 94%

Cc1ccc(Cl)cc1NC(=O)N1CCC(c2nc(C3=NOC(c4c(Cl)cccc4OS(C)(=O)=O)C3)cs2)CC1 (racemic) [I-54]
Eff. % [1]: 100%
logp [a] [2]: 3.54[a],
logp [b] [2]: 3.43[b]
Eff. % [3]: 94%

CC(=O)OCc1ccccc1C1CC(c2csc(C3CCN(C(=O)Cn4nc(C(F)F)cc4C(F)F)CC3)n2)=NO1 (racemic) [I-55]
Eff. % [1]: 92%
logp [a] [2]: 3.22[a]
Eff. % [3]: 94%

COCCS(=O)(=O)Cc1ccccc1C1CC(c2csc(C3CCN(C(=O)Cn4nc(C(F)F)cc4C(F)F)CC3)n2)=NO1 (racemic) [I-57]
Eff. % [1]: 90%
logp [a] [2]: 2.74[a]
Eff. % [3]: 94%

CC(=NO)c1ccccc1C1CC(c2csc(C3CCN(C(=O)Cn4nc(C(F)(F)F)cc4C)CC3)n2)=NO1 (stereo not drawn) [I-40, 1-[4-(4-{5-[2-(N-Hydroxyethanimidoyl)phenyl]-4,5-dihydro-1,2-phenyloxazol-3-yl}-1,3-thiazol-2-yl)piperidin-1-yl]-2-[5-methyl-3-(trifluoromethyl)-1H-pyrazol-1-yl]ethanone]
Eff. % [1]: 90%
logp [a] [2]: 2.92[a]
Eff. % [3]: 100%

N#CCOc1cccc(Cl)c1C1CC(c2csc(C3CCN(C(=O)Cn4nc(C(F)F)cc4C(F)F)CC3)n2)=NO1 (stereo not drawn) [I-75]
Eff. % [1]: 100%
logp [a] [2]: 3.19[a],
logp [b] [2]: 3.11[b]

CCS(=O)(=O)Oc1ccc(C2CC(c3csc(C4CCN(C(=O)Cn5nc(C(F)(F)F)cc5C)CC4)n3)=NO2)cc1 (stereo not drawn) [I-97]
logp [a] [2]: 3.14[a],
logp [b] [2]: 3.05[b]
Eff. % [3]: 95%

Cc1cc(C(F)(F)F)nn1CC(=O)N1CCC(c2nc(C3=NOC(c4ccc(OS(=O)(=O)C5CC5)cc4)C3)cs2)CC1 (stereo not drawn) [I-98]
logp [a] [2]: 3.22[a],
logp [b] [2]: 3.13[b]
Eff. % [3]: 95%

CCS(=O)(=O)Oc1cccc(C2CC(c3csc(C4CCN(C(=O)Cn5nc(C(F)(F)F)cc5C)CC4)n3)=NO2)c1 (stereo not drawn) [I-99]
logp [a] [2]: 3.18[a],
logp [b] [2]: 3.08[b]
Eff. % [3]: 100%

COCCSCc1ccccc1C1CC(c2csc(C3CCN(C(=O)Cn4nc(C(F)F)cc4C(F)F)CC3)n2)=NO1 (stereo not drawn) [I-100]
logp [a] [2]: 3.5[a]
Eff. % [3]: 100%

Cc1cc(C(F)(F)F)nn1CC(=O)N1CCC(c2nc(C3=NOC(c4cccc(OS(=O)(=O)C5CC5)c4)C3)cs2)CC1 (stereo not drawn) [I-101]
logp [a] [2]: 3.25[a],
logp [b] [2]: 3.12[b]
Eff. % [3]: 100%

C=CC(=O)Oc1ccccc1C1CC(c2csc(C3CCN(C(=O)Cn4nc(C(F)(F)F)cc4C)CC3)n2)=NO1 (stereo not drawn) [I-104]
logp [a] [2]: 3.38[a],
logp [b] [2]: 3.3[b]
Eff. % [3]: 97%

O=C(Cn1nc(C(F)F)cc1C(F)F)N1CCC(c2nc(C3=NOC(c4ccccc4OC(=O)C4(Cl)CC4)C3)cs2)CC1 (stereo not drawn) [I-107]
logp [a] [2]: 3.66[a],
logp [b] [2]: 3.57[b]
Eff. % [3]: 100%

Cc1cc(C(F)(F)F)nn1CC(=O)N1CCC(c2nc(C3=NOC(c4ccccc4NC=O)C3)cs2)CC1 (stereo not drawn) [I-109]
logp [a] [2]: 2.49[a],
logp [b] [2]: 2.39[b]
Eff. % [3]: 100%

N#CCOc1cccc(C2CC(c3csc(C4CCN(C(=O)Cn5nc(C(F)F)cc5C(F)F)CC4)n3)=NO2)c1 (stereo not drawn) [I-110]
logp [a] [2]: 2.95[a],
logp [b] [2]: 2.88[b]
Eff. % [3]: 100%

Cc1cc(C(F)(F)F)nn1CC(=O)N1CCC(c2nc(C3=NOC(c4cccc(F)c4OCC#N)C3)cs2)CC1 (stereo not drawn) [I-111]
logp [a] [2]: 3.22[a],
logp [b] [2]: 3.13[b]
Eff. % [3]: 98%

O=C(O)c1ccccc1C1CC(c2csc(C3CCN(C(=O)Cn4nc(C(F)F)cc4C(F)F)CC3)n2)=NO1 (stereo not drawn) [I-134]
logp [a] [2]: 2.63[a]
Eff. % [3]: 93%

CCNC(=O)Oc1ccccc1C1CC(c2csc(C3CCN(C(=O)Cn4nc(C(F)F)cc4C(F)F)CC3)n2)=NO1 (stereo not drawn) [I-136]
logp [a] [2]: 2.84[a],
logp [b] [2]: 2.81[b]
Eff. % [3]: 93%

O=C(Cn1nc(C(F)F)cc1C(F)F)N1CCC(c2nc(C3=NOC(c4cccc(OCC#Cc5cccc6ccccc56)c4)C3)cs2)CC1 (stereo not drawn) [I-137]
logp [a] [2]: 4.6[a],
logp [b] [2]: 4.71[b]
Eff. % [3]: 100%

C=CCOCc1ccccc1C1CC(c2csc(C3CCN(C(=O)Cn4nc(C(F)F)cc4C(F)F)CC3)n2)=NO1 (stereo not drawn) [I-139]
logp [a] [2]: 4.11[a]
Eff. % [3]: 80%
